Experimental findings from PubChem BioAssay (NCI) are described below.

Structures are written as SMILES.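 96-well plates; 48 h exposure; 5 concentrations. Endpoints by linear interpolation between flanking doses. Not reached: highest tested concentration assigned. TGI denotes the concentration required for complete inhibition of growth.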 A value given as a limit tells only on which side of the number the result lay.

The first experiment deals with NCI/ADR-RES ovarian. As to the kind of experiment: DTP human tumour cell line panel, 48 h.
Turning to `Cc1n(CC(C)C)c2c([n+]1C)C(=O)c1ccccc1C2=O`, the TGI – broadly, the concentration giving total growth inhibition – is more than 100 µM.

With `N[C@@H]1CCN(c2c(F)cc3c(=O)c(C(=O)O)cn4c3c2Oc2c-4ccc3c2ccc2ccccc23)C1`, the TGI was more than 100 µM.

In the case of `Cc1ccc(C2(O)CSC(=NC34CC5CC(CC(C5)C3)C4)N2C(P(=O)(O)O)P(=O)(O)O)cc1` (stereo not drawn), the TGI was 68.3 µM.

Compound `CC(C)CCNC(=O)c1ccc(CNC(=O)/C=C/c2cccc(Oc3ccccc3)c2)cc1` showed a TGI of more than 100 µM.

The compound `C/C(=N\NS(=O)(=O)c1ccc(C)cc1)c1ccccn1` returned a TGI of more than 100 µM.

For `Cc1ccc2c(ccc(/C=C/c3ccc(O)c4ncccc34)[n+]2C)c1`, the TGI is more than 100 µM.

As for `CCOC(=O)c1ccc(N=C/C=C(\Nc2ccc(C(=O)OCC)cc2)C23CC4CC(CC(C4)C2)C3)cc1`, the TGI is more than 100 µM.

`Cc1ccc(C(=O)N/N=C(\N=Nc2cccc([N+](=O)[O-])c2)c2ccc(N(CCC#N)CCC#N)cc2C)cc1` had a TGI of more than 95.4 µM.

In turn, `O=C(O)c1c2c(cc3c1CC(Cc1ccccc1)C3=O)CCC2` (stereo not drawn) gave a TGI of more than 100 µM.

On to `OC(CC1CCCCN1)c1ccc2c(c1)oc1ccccc12` (stereo not drawn), for which the TGI is more than 100 µM.

Compound `C=CCCON(C(=O)OC(C)(C)C)c1ccccc1` registered a TGI of more than 100 µM.

On to `O=C1OC(CCCN2CCCCC2)(c2ccccc2)CC12CCCC2` (stereo not drawn), for which the TGI was more than 100 µM.

As for `COC(=O)[C@@H]1C=C[C@H](OC2OC(COC(C)=O)C(OC(C)=O)C(OC(C)=O)C2OC(C)=O)n2c(=O)n(-c3ccccc3)c(=O)n21` (stereo partly drawn), the TGI worked out at 31.4 µM.

Turning to `C=CCn1c(N)c(C#N)c(C#N)c1CCC`, the TGI was more than 100 µM.

Consider `COC(=O)C1=C(OC(=O)/C(=C/c2ccccc2)c2ccc(Cl)cc2Cl)C(C(=O)OC)[C@@]2(O)[C@@H](C(=O)OC)[C@H](C)C[C@@H]1[C@@H]2C(=O)OC` (stereo partly drawn), for which the TGI is more than 100 µM.

In turn, `C#CCn1c(=O)c(I)cn(/C(=C/C(=O)OCC)C(=O)OCC)c1=O` came in with a TGI of more than 84 µM.

On to `CS(=O)(=O)C(C#N)c1nc2ccccc2nc1Cl` (stereo not drawn), for which the TGI was more than 100 µM.

A further experiment deals with OVCAR-3 ovarian. Nature of the experiment: DTP human tumour cell line panel, 48 h.
As to `Cc1n(CC(C)C)c2c([n+]1C)C(=O)c1ccccc1C2=O`, the TGI worked out at 0.0961 µM. That is a double-digit nanomolar value.

For the compound `N[C@@H]1CCN(c2c(F)cc3c(=O)c(C(=O)O)cn4c3c2Oc2c-4ccc3c2ccc2ccccc23)C1`, the TGI was more than 100 µM.

The compound `Cc1ccc(C2(O)CSC(=NC34CC5CC(CC(C5)C3)C4)N2C(P(=O)(O)O)P(=O)(O)O)cc1` (stereo not drawn) displayed a TGI of more than 100 µM.

In the case of `CC(C)CCNC(=O)c1ccc(CNC(=O)/C=C/c2cccc(Oc3ccccc3)c2)cc1`, the TGI amounted to 93 µM.

The compound `C/C(=N\NS(=O)(=O)c1ccc(C)cc1)c1ccccn1` yielded a total growth inhibition concentration (TGI) of more than 100 µM.

As for `Cc1ccc2c(ccc(/C=C/c3ccc(O)c4ncccc34)[n+]2C)c1`, the TGI was 10.4 µM.

The compound `CCOC(=O)c1ccc(N=C/C=C(\Nc2ccc(C(=O)OCC)cc2)C23CC4CC(CC(C4)C2)C3)cc1` registered a TGI of more than 100 µM.

In turn, `Cc1ccc(C(=O)N/N=C(\N=Nc2cccc([N+](=O)[O-])c2)c2ccc(N(CCC#N)CCC#N)cc2C)cc1` displayed a TGI of 6.71 µM.

Take `O=C(O)c1c2c(cc3c1CC(Cc1ccccc1)C3=O)CCC2` (stereo not drawn): the TGI is more than 100 µM.

`OC(CC1CCCCN1)c1ccc2c(c1)oc1ccccc12` (stereo not drawn) came in with a TGI of more than 100 µM.

Regarding `C=CCCON(C(=O)OC(C)(C)C)c1ccccc1`, the TGI was more than 100 µM.

The compound `O=C1OC(CCCN2CCCCC2)(c2ccccc2)CC12CCCC2` (stereo not drawn) showed a TGI of more than 100 µM.

Turning to `COC(=O)[C@@H]1C=C[C@H](OC2OC(COC(C)=O)C(OC(C)=O)C(OC(C)=O)C2OC(C)=O)n2c(=O)n(-c3ccccc3)c(=O)n21` (stereo partly drawn), the TGI worked out at 3.24 µM. That is a single-digit micromolar value.

The compound `C=CCn1c(N)c(C#N)c(C#N)c1CCC` displayed a TGI of more than 100 µM.

As to `COC(=O)C1=C(OC(=O)/C(=C/c2ccccc2)c2ccc(Cl)cc2Cl)C(C(=O)OC)[C@@]2(O)[C@@H](C(=O)OC)[C@H](C)C[C@@H]1[C@@H]2C(=O)OC` (stereo partly drawn), the TGI was more than 100 µM.

In the case of `C#CCn1c(=O)c(I)cn(/C(=C/C(=O)OCC)C(=O)OCC)c1=O`, the TGI amounted to 3.37 µM. That is a single-digit micromolar value.

For `CS(=O)(=O)C(C#N)c1nc2ccccc2nc1Cl` (stereo not drawn), the TGI is more than 100 µM.

For a further experiment, the system named is SF-295 CNS. Nature of the experiment: DTP human tumour cell line panel, 48 h.
`Cc1n(CC(C)C)c2c([n+]1C)C(=O)c1ccccc1C2=O` returned a TGI of 1.65 µM.

As for `N[C@@H]1CCN(c2c(F)cc3c(=O)c(C(=O)O)cn4c3c2Oc2c-4ccc3c2ccc2ccccc23)C1`, the TGI is more than 100 µM.

In turn, `Cc1ccc(C2(O)CSC(=NC34CC5CC(CC(C5)C3)C4)N2C(P(=O)(O)O)P(=O)(O)O)cc1` (stereo not drawn) gave a TGI of more than 100 µM.

As for `CC(C)CCNC(=O)c1ccc(CNC(=O)/C=C/c2cccc(Oc3ccccc3)c2)cc1`, the TGI is more than 100 µM.

With `C/C(=N\NS(=O)(=O)c1ccc(C)cc1)c1ccccn1`, the TGI is more than 100 µM.

As to `Cc1ccc2c(ccc(/C=C/c3ccc(O)c4ncccc34)[n+]2C)c1`, the TGI is 34.9 µM.

Take `CCOC(=O)c1ccc(N=C/C=C(\Nc2ccc(C(=O)OCC)cc2)C23CC4CC(CC(C4)C2)C3)cc1`: the TGI is more than 100 µM.

`Cc1ccc(C(=O)N/N=C(\N=Nc2cccc([N+](=O)[O-])c2)c2ccc(N(CCC#N)CCC#N)cc2C)cc1` displayed a TGI of more than 92 µM.

`O=C(O)c1c2c(cc3c1CC(Cc1ccccc1)C3=O)CCC2` (stereo not drawn) came in with a TGI of more than 100 µM.

`OC(CC1CCCCN1)c1ccc2c(c1)oc1ccccc12` (stereo not drawn) yielded a TGI of more than 100 µM.

For the compound `C=CCCON(C(=O)OC(C)(C)C)c1ccccc1`, the TGI is more than 100 µM.

For the compound `O=C1OC(CCCN2CCCCC2)(c2ccccc2)CC12CCCC2` (stereo not drawn), the TGI was more than 100 µM.

`COC(=O)[C@@H]1C=C[C@H](OC2OC(COC(C)=O)C(OC(C)=O)C(OC(C)=O)C2OC(C)=O)n2c(=O)n(-c3ccccc3)c(=O)n21` (stereo partly drawn) had a TGI of 15.5 µM.

With `C=CCn1c(N)c(C#N)c(C#N)c1CCC`, the TGI was more than 100 µM.

The compound `COC(=O)C1=C(OC(=O)/C(=C/c2ccccc2)c2ccc(Cl)cc2Cl)C(C(=O)OC)[C@@]2(O)[C@@H](C(=O)OC)[C@H](C)C[C@@H]1[C@@H]2C(=O)OC` (stereo partly drawn) registered a TGI of more than 100 µM.

In the case of `C#CCn1c(=O)c(I)cn(/C(=C/C(=O)OCC)C(=O)OCC)c1=O`, the TGI is more than 59.2 µM.

In turn, `CS(=O)(=O)C(C#N)c1nc2ccccc2nc1Cl` (stereo not drawn) had a TGI of more than 100 µM.

In the next experiment the test system is SF-539 CNS. As to the kind of experiment: DTP human tumour cell line panel, 48 h.
The compound `Cc1n(CC(C)C)c2c([n+]1C)C(=O)c1ccccc1C2=O` gave a TGI of 0.532 µM.

Regarding `N[C@@H]1CCN(c2c(F)cc3c(=O)c(C(=O)O)cn4c3c2Oc2c-4ccc3c2ccc2ccccc23)C1`, the TGI was more than 100 µM.

For the compound `Cc1ccc(C2(O)CSC(=NC34CC5CC(CC(C5)C3)C4)N2C(P(=O)(O)O)P(=O)(O)O)cc1` (stereo not drawn), the TGI was more than 100 µM.

As for `CC(C)CCNC(=O)c1ccc(CNC(=O)/C=C/c2cccc(Oc3ccccc3)c2)cc1`, the total growth inhibition concentration (TGI) was more than 100 µM.

Consider `C/C(=N\NS(=O)(=O)c1ccc(C)cc1)c1ccccn1`, for which the TGI was more than 100 µM.

`Cc1ccc2c(ccc(/C=C/c3ccc(O)c4ncccc34)[n+]2C)c1` came in with a TGI of 23.1 µM. That is a double-digit micromolar value.

Compound `CCOC(=O)c1ccc(N=C/C=C(\Nc2ccc(C(=O)OCC)cc2)C23CC4CC(CC(C4)C2)C3)cc1` returned a TGI of more than 100 µM.

The compound `Cc1ccc(C(=O)N/N=C(\N=Nc2cccc([N+](=O)[O-])c2)c2ccc(N(CCC#N)CCC#N)cc2C)cc1` yielded a TGI of 58.7 µM. This counts as double-digit micromolar.

In turn, `O=C(O)c1c2c(cc3c1CC(Cc1ccccc1)C3=O)CCC2` (stereo not drawn) showed a TGI of more than 100 µM.

In turn, `OC(CC1CCCCN1)c1ccc2c(c1)oc1ccccc12` (stereo not drawn) yielded a TGI of more than 100 µM.

`C=CCCON(C(=O)OC(C)(C)C)c1ccccc1` returned a TGI of more than 100 µM.

As to `O=C1OC(CCCN2CCCCC2)(c2ccccc2)CC12CCCC2` (stereo not drawn), the TGI is more than 92.1 µM.

Compound `COC(=O)[C@@H]1C=C[C@H](OC2OC(COC(C)=O)C(OC(C)=O)C(OC(C)=O)C2OC(C)=O)n2c(=O)n(-c3ccccc3)c(=O)n21` (stereo partly drawn) gave a concentration for total growth inhibition (TGI) of 8.21 µM. This lies in the single-digit micromolar range.

As to `C=CCn1c(N)c(C#N)c(C#N)c1CCC`, the TGI is more than 100 µM.

The compound `COC(=O)C1=C(OC(=O)/C(=C/c2ccccc2)c2ccc(Cl)cc2Cl)C(C(=O)OC)[C@@]2(O)[C@@H](C(=O)OC)[C@H](C)C[C@@H]1[C@@H]2C(=O)OC` (stereo partly drawn) had a TGI of more than 100 µM.

`C#CCn1c(=O)c(I)cn(/C(=C/C(=O)OCC)C(=O)OCC)c1=O` came in with a concentration for total growth inhibition (TGI) of 12.3 µM.

On to `CS(=O)(=O)C(C#N)c1nc2ccccc2nc1Cl` (stereo not drawn), for which the TGI was more than 65.9 µM.
